This experiment addresses PRMT5:MEP50 (Homo sapiens, UniProt O14744). In words: PRMT5:MEP50 Flashplate Assay. In kind it is biochemical. To be noted: PRMT5:MEP50 inhibitory activity; 3H-SAM, 2 h at room temperature, top concentration 10 μM. How it is done: PRMT5:MEP50 Flashplate Assay:
Ten-point curves of inhibitor compounds were made using serial threefold dilutions in DMSO (the final top concentration of compound was 10 μM, 1% DMSO). Reaction mixture consisting of 50 mM Tris-HCl (pH 8.5), 0.002% Tween 20, 0.005% BSA (Bovine Serum Albumin), 1 mM TCEP, and 1% DMSO. Substrates are freshly prepared in reaction buffer. PRMT5:MEP50 was then added into substrate solution and mixed gently. Inhibitor compound was then added and incubated for 30 min at room temperature. ^3H-SAM was added to initiate the reaction. Reactions were incubated for 2 h at room temperature and quenched with 0.5 mM SAM (S-adenosyl-L-Methionine) in assay buffer. An aliquot of the reaction mix was transferred to a streptavidin-coated 384-well FlashPlate (PerkinElmer). After an incubation time of 1 h, the plate was washed and then read on a TopCount (PerkinElmer) to measure the amount of tritium incorporated into the peptide substrate. IC50 was calculated using conventional curve-fitting method.
PRMT5:MEP50, sequence (O14744 whole entry, species assumed): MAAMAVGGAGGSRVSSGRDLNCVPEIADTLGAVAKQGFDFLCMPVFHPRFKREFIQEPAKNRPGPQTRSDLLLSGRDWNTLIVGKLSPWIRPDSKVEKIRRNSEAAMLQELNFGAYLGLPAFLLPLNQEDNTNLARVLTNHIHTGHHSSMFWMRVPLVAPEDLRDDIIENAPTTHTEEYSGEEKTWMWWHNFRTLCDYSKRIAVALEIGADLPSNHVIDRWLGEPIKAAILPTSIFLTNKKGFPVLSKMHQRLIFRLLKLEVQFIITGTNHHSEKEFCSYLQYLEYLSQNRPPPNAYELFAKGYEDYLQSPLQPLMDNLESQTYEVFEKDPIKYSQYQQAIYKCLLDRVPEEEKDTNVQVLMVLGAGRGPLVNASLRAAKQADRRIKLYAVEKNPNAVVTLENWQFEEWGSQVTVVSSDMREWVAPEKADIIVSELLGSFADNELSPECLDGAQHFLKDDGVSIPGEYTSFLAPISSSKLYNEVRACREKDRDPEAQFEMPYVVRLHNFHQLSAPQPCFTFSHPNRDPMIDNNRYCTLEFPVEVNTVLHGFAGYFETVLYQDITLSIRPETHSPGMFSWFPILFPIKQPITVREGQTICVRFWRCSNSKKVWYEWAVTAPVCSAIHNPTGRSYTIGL
PRMT5:MEP50, sequence (Q9BQA1 whole entry partner, species assumed): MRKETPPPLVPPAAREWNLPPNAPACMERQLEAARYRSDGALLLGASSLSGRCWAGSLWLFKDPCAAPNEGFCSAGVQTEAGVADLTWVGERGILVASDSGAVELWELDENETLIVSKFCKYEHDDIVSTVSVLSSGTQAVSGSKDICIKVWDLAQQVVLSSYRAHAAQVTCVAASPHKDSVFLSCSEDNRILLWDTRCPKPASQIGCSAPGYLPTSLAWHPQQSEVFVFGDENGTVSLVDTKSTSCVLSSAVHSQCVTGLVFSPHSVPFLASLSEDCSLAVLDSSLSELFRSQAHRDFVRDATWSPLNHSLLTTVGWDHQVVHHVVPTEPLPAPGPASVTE
What is called IC50 is the concentration that inhibits the measured activity by half. A higher IC50 goes with weaker potency in that assay. Turning to `NC1=Nc2cc(CC[C@H]3O[C@@H](n4ccc5c(N)ncnc54)[C@H](O)[C@@H]3O)ccc2C2=NCCN12` [Compound 3-10, (2R,3S,4R,5R)-2-(2-(5-amino-2,3-dihydroimidazo[1,2-c]quinazolin-8-yl)ethyl)-5-(4-amino-7H-pyrrolo[2,3-d]pyrimidin-7-yl)tetrahydrofuran-3,4-diol], the half-maximal inhibitory concentration (IC50) was < 1 nM. Under `Nc1ncnc2c1ccn2[C@@H]1O[C@H](CCc2ccc3c(c2)nc(N)n2ccnc32)[C@@H](O)[C@H]1O` [Compound 3-11, (2R,3R,4S,5R)-2-(4-amino-7H-pyrrolo[2,3-d]pyrimidin-7-yl)-5-(2-(5-aminoimidazo-[1,2-c]quinazolin-8-yl)ethyl)tetrahydrofuran-3,4-diol] stands 1 to 100 nM; under `Nc1ncnc2c1ccn2[C@@H]1O[C@H](CCc2ccc3cc4cn[nH]c4nc3c2)[C@@H](O)[C@H]1O` [Compound 3-12, (2R,3S,4R,5R)-2-(2-(1H-pyrazolo[3,4-b]quinolin-7-yl)ethyl)-5-(4-amino-7H-pyrrolo[2,3-d]pyrimidin-7-yl)tetrahydrofuran-3,4-diol], 1 to 100 nM. Under `Nc1ncnc2c1ccn2[C@@H]1O[C@H](CCc2ccc3cc4c(nc3c2)NCCC4)[C@@H](O)[C@H]1O` [Compound 3-13, (2R,3R,4S,5R)-2-(4-amino-7H-pyrrolo[2,3-d]pyrimidin-7-yl)-5-(2-(1,2,3,4-tetrahydrobenzo[b][1,8]naphthyridin-8-yl)ethyl)tetrahydrofuran-3,4-diol] stands < 1 nM. The result for `Nc1ncnc2c1ccn2[C@@H]1C[C@H](CCc2ccc3cc4cc[nH]c4nc3c2)[C@@H](O)[C@H]1O` [Compound 4-3, (1S,2R,3S,5R)-3-(2-(1H-pyrrolo[2,3-b]quinolin-7-yl)ethyl)-5-(4-amino-7H-pyrrolo[2,3-d]pyrimidin-7-yl)cyclopentane-1,2-diol] reads 1 to 100 nM.

The values are drawn from patent publication US20220089612A1, “HETEROCYCLIC COMPOUNDS AS PRMT5 INHIBITORS” (ANGEX PHARMACEUTICAL, INC., priority 2017, published 2022).
